These results are taken from paper PMC12064818, “A general assay platform to study protein pharmacology using ligand-dependent structural dynamics” (Nature Communications, 2025).

Each structure is given as a SMILES string.

For the experiment, the target named is T1, FLuc-C-HiBiT (Photinus pyralis, UniProt P08659).
T1 construct: firefly luciferase with C-terminal HiBiT tag, E. coli expressed
T1 sequence (P08659 whole entry, looked up): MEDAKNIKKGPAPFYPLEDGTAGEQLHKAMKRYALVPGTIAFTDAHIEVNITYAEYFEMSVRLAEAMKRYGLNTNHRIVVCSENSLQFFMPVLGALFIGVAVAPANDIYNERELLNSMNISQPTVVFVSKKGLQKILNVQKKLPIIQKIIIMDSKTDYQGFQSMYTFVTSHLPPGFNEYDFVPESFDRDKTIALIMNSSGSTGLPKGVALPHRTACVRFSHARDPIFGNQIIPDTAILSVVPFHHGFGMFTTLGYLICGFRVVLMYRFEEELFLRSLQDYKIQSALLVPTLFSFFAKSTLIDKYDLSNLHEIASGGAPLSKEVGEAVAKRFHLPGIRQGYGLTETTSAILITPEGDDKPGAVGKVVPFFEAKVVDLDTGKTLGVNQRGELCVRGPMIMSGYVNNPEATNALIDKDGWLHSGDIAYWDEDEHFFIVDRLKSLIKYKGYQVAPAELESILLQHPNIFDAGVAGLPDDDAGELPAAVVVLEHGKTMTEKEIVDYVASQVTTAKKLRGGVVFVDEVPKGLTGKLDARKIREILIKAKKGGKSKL
Description: biochemical. Conditions: enzyme activity, 10 uM ATP; read-out: IC50 or SDR50 (mM) / FLuc E.
As for `COc1cccc(C(=O)Nc2ccc3nc(SCC(=O)N4CCOCC4)sc3c2)c1` [NCGC00118677-01], the IC50 turned out to be 9.89 µM.
Next, `O=C(Nc1cccc(Cl)c1)c1cc(-c2ccc3c(c2)OCCO3)on1` [NCGC00118845-01]: 0.624 µM.
To `CNC(=O)c1cccc(-c2cnc(Nc3ccc(Cl)cn3)c3c2CCO3)c1` [NCGC00412786-01] belongs 10.1 µM; to `Cc1ccc(-c2cc3c(=O)n(CCNC(=O)c4cccc5[nH]ccc45)ccn3n2)cc1C` [NCGC00457046-01], 7.85 µM; to `Oc1cc(-c2nc3ccccc3s2)cc2c1OCCN(Cc1ncccn1)C2` [NCGC00432964-01], > 30 µM.
To `COc1ccccc1-c1noc(-c2ccc(N3CCN(C)CC3)c([N+](=O)[O-])c2)n1` [NCGC00119222-01] belongs 4.95 µM.
With `NC(=O)[C@@H]1CCCN1C(=O)c1ccc2oc(-c3cccc(F)c3)nc2c1` [NCGC00444081-01], the IC50 was > 30 µM.
Next, `CC(C)Oc1cccc(-c2cccc(COc3ccc4c(cnn4CC[S+](C)(=O)[O-])c3)c2)c1` [NCGC00418050-01]: 11.1 µM; `CNC(=O)c1cccc(-c2cnc(Nc3ccccc3)c3c2CCO3)c1` [NCGC00412768-01]: 18 µM.
Next, `COc1ccc(-c2ncc3c(n2)OCCN(CC2CC2)C3=O)cc1` [NCGC00413552-01]: 8.05 µM.
For `Cn1ccnc1CN1C(=O)CO[C@H](c2ccc(NC(=O)Nc3ccccc3)cc2)[C@H]1CO` [NCGC00396650-01], the IC50 is 14 µM.
To `Cc1cnc(NC(=O)c2ccc3c(c2)OCC(=O)N(C)C3)s1` [NCGC00418511-01] belongs 14.3 µM; to `Nc1ccc2nc(-c3ccc(O)cc3)sc2c1` [NCGC00098122-01], 0.624 µM; to `Cc1ccc(-c2cc3c(=O)n(CCNC(=O)c4ccc(N(C)C)cc4)ccn3n2)c(C)c1` [NCGC00456986-01], 3.13 µM.
To `Cc1ccc(CSc2nc3cccnc3n2Cc2ccc(C(=O)NC3CC3)cc2)cc1` [NCGC00123844-01] belongs 0.394 µM; to `COc1cc(F)ccc1-c1ccc(COc2ccc3c(cnn3CCC(=O)O)c2)cc1` [NCGC00418071-01], 18 µM; to `COCCN1CCNc2cc(Nc3cccc(OC)c3)ncc2C1` [NCGC00411124-01], 18 µM.
As for `Cc1cccc(N2CCN(C(=O)CSCc3ccc(F)cc3)CC2)c1C` [NCGC00140140-01], the IC50 is > 30 µM.
To `COc1ccc(-c2cc3c(=O)n(CCNC(=O)Cc4cccs4)ccn3n2)cc1` [NCGC00456924-01] belongs 9.89 µM.
As for `CCc1ccc2oc(-c3ccc(NC(=O)c4ccc(OC)c(Br)c4)cc3)nc2c1` [NCGC00098340-01], the IC50 was > 30 µM.
Next, `CCOc1ccc(C(=O)Nc2onc3c2CCCC3)cc1` [NCGC00115912-01]: 1.97 µM.
To `CCC(=O)NCCC1CCN(C(=O)Nc2ccc(C)c(F)c2)CC1` [NCGC00425067-01] belongs 11.1 µM; to `O=C(Nc1ccccc1F)c1ccc(-c2ccccc2)s1` [NCGC00114318-01], 2.48 µM.
To `COc1cc(NC(=O)c2ccc(-c3ncn[nH]3)cc2)ccc1NC(=O)C(C)(C)C` [NCGC00432557-01] belongs 12.4 µM.
For the compound `Cc1ccc(-c2nc(C(=O)N3CCN(c4ccccn4)CC3)no2)cc1` [NCGC00447133-01], the IC50 stood at 7.85 µM.
Consider `COc1ccccc1OCc1nc2ccccc2n1Cc1ccccc1` [NCGC00141136-01], for which the IC50 was determined as 14 µM.
To `CCc1noc(-c2nc(-c3ccc4c(c3)OCO4)no2)n1` [NCGC00450064-01] belongs 9.89 µM; to `COc1ccc2c(C)c(-c3nc(C4CCOC4)no3)oc2c1` (centres unmarked) [NCGC00443479-01], > 30 µM.
Next, `Cc1ccc(-c2cc3c(=O)n(CCNC(=O)c4cccc(C#N)c4)ccn3n2)c(C)c1` [NCGC00456970-01]: 3.13 µM; `COC(=O)c1ccc2c(c1)C(=Cc1cc(Br)c(O)c(Br)c1)C(=O)N2` [NCGC00242004-02]: 9.89 µM.
Next, `COc1ccc(NC(=O)Nc2ccc(C)n(CC(=O)O)c2=O)cc1` [NCGC00432735-01]: 9.89 µM.
Consider `CCCN1CCNc2cc(Nc3ccccc3)ncc2C1` [NCGC00411254-01], for which the IC50 stood at 25.4 µM.
To `O=C(O)c1cccc(-c2noc(-c3cccc(F)c3)n2)c1` [NCGC00168760-01] belongs 0.007 µM; to `COc1ccc2nc(-c3ccc(N4CCN(C(=O)OC(C)(C)C)CC4)cc3)sc2c1` [NCGC00167609-02], 14 µM; to `Cc1ccccc1-c1ccc(COc2ccc3c(cnn3CCC(=O)O)c2)cc1` [NCGC00418125-01], 16.1 µM.
Next, `O=C(Nc1cccnc1)c1nc2c(o1)CCN(Cc1nccs1)CC2` [NCGC00413267-01]: 20.2 µM; `Cc1c(-c2ccccc2)[nH]c2c(CNC(=O)C3=NN(C)C(=O)CC3)cc(Cl)cc12` [NCGC00439904-01]: 12.4 µM; `CCN(CC)c1cc(CCC(=O)O)ccn1` [NCGC00432823-01]: 1.4 µM.
To `Cc1cccc(CNC(=O)Cc2csc3ccccc23)c1` [NCGC00113581-01] belongs > 30 µM; to `COc1ccc(NC(=O)N[C@@H]2C=C[C@@H](c3c(C)nn(-c4ccc(C(C)C)cc4)c3C)C2)cc1` [NCGC00421407-01], > 30 µM; to `O=C(Nc1cccnc1)c1nc2c(o1)CCN(Cc1ccc(O)cc1)CC2` [NCGC00413415-01], 18 µM.
As for `Cc1ccc(Nc2ncnc3c2nc2n3CCCC2)c(Br)c1` [NCGC00124653-01], the IC50 was determined as 4.95 µM.
Next, `Cc1ccc(NCc2nc3ccccc3n2CCOc2ccccc2)cc1` [NCGC00104457-01]: 11.1 µM; `CC(=O)c1cccc(NC(=O)c2nc3ccccc3n(C)c2=O)c1` [NCGC00107713-01]: 3.13 µM.
As to `CCOC(=O)c1ccc(NC(=O)c2csc3c2CCCC3)cc1` [NCGC00112858-01], the IC50 stood at 15.7 µM.
Take `COc1ccc(CN2CCOc3nc(-c4cc5ccccc5o4)ncc3C2=O)cc1` [NCGC00413542-01]: the IC50 was found to be 8.05 µM.
Next, `Cc1ccc(Cl)cc1-n1ncc2c(N3CCC(C)CC3)ncnc21` [NCGC00138926-01]: > 30 µM; `COc1ccc(-c2cc(N3CCCC(NC(=O)c4ccc(OC)cc4OC)C3)[nH]n2)cc1` (centres unmarked) [NCGC00437622-01]: 11.1 µM; `Cc1c(NC(=O)c2cccc(Cl)c2Cl)cccc1-c1nc2ccccc2s1` [NCGC00595034-01]: > 30 µM.
Next, `COc1ccc(-c2cnc(Nc3cccc(N[S+](C)(=O)[O-])c3)c3c2CCO3)cn1` [NCGC00412697-01]: 18 µM; `O=C(O)CCC1CCN(c2cc(NC3CC3)ncn2)CC1` [NCGC00432803-01]: 3.13 µM.
Next, `Cc1cc(C)cc(OCC(=O)Nc2ccc(-c3nc4ccccc4s3)cc2)c1` [NCGC00119151-01]: > 30 µM; `O=C(Nc1ccc([C@H]2OCC(=O)N(C3CCOCC3)[C@@H]2CO)cc1)c1ccc(C(F)(F)F)cc1` [NCGC00391115-01]: 12.4 µM; `COc1cccc(Nc2cc3c(cn2)CN(C)CCN3)c1` [NCGC00411064-01]: 22.6 µM.
Turning to `CCN1C(=O)CCc2cc(NC(=O)c3ccc(C(C)C)cc3)ccc21` [NCGC00425391-01], the IC50 came to 9.89 µM.
To `COc1ccc(-c2nc(C)c(CCNC(=O)c3cccs3)s2)cc1` [NCGC00135787-01] belongs 11.1 µM.
